Data as given in US9642835B2, “Modulators of GTPase and use in relevant treatment” (STC.UNM, priority 2010, dated 2017).

Columns and labels:
Cdc42 ACT (Cdc42Q61L) = Cdc42 ACT (Cdc42Q61L) (Homo sapiens, UniProt P60953, Q61L); assay: Bead-based flow cytometry dose response, BODIPY-FL-GTP binding; conditions: in the presence of Mg ions; read-out: EC50 for Cdc42(Q61L)
Protocol: (§1) Bead sets for multiplex assays were custom synthesized by Duke Scientific Corp (Fremont, Calif.), but may now be ordered from Thermo/Fisher. […] Negative controls, contained the bead mixture with fluorescent GTP, 0.5 mM unlabeled GTP as a competitor, and 1% DMSO. […] The resulting time-dependent data (one file per plate) were analyzed using IDLQuery software to determine the compound activity in each well. Gating based on forward scatter (FS) and side scatter (SS) parameters was used to identify singlet bead populations. Gating based on FL8 emission distinguishes the beads coated with different proteins, and the median fluorescence per bead population was calculated. […] Baselines were set to 100% based on measurements from the 1% DMSO containing positive controls as further described in PubChem. {PubChem #72}
(§2) Briefly, compounds were serially diluted 1:3 a total of eight times from a starting concentration of 10 mM giving a 9-point dilution series in DMSO. The final concentrations of inhibitors in the assay ranged from 10 nM to 100 μM. Dose-response analyses were examined in the presence of NP-HPS buffer containing: a) 1 mM EDTA; or b) 1 mM MgCl2. […] For assays with EDTA we used one multiplex (Rab7 wt, Rab2 wt, H-Ras wt, H-RasG12V, Cdc42 wt, and Cdc42Q61L) and 3 single-plexes (for Rac1 wt, Rac1 Q61L and GST-GFP).
(§3) GTPase activators were identified on the basis of an increase in fluorescent GTP-binding.
(§4) In experiments including magnesium, six GST-GTPases were assayed simultaneously in a single multiplex (Rac1 wt, Rac1Q61L, RhoA wt, RhoAL63, Cdc42 wt and Cdc42Q61L) and 1 nM BODIPY-FL-GTP binding was measured in the presence or absence of the serial drug dilution series. Each dose response series was run in duplicate.

Cdc42 WT = biological target: T1, Cdc42 WT (Homo sapiens, UniProt P60953); assay: as above; conditions: in the presence of Mg ions; read-out: EC50 for Cdc42 wt
T1 construct: purchased Cytoskeleton
Protocol: as §1, §2, §3, §4

[1] = tested on: other Rho family GTPases (Rac1, RhoA); assay: Multiplex dose response with Mg, BODIPY-FL-GTP binding; conditions: in the presence of Mg ions
Protocol: as §4

RBL-2H3 cells = assay: RBL cell morphology, actin and Cdc42 distribution after activation; type: cell-based, rat; conditions: 10 μM
Protocol: Live cell microscopy was carried out on RBL-2H3 cells. Cells were grown on coverslips overnight, washed and overlaid with Tyrode's buffer (10 mM Hepes, pH 7.4, 130 mM NaCl, 5 mM KCl, 1.4 mM CaCl2, 1 mM MgCl2, 5.6 mM glucose and 0.1% BSA). Time lapse images were taken after addition of 10 μM MLS000693334 (final concentration) at 60 s intervals for up to 30 min. Activation with Thy-1 cross-linking was performed as described {Surviladze, 1998 #50}. Briefly, RBL cells incubated with OX7 mAb (Santa Cruz Biothechnology) final concentration 50 ug/ml for 1 h at 37 C. The unbound OX7 mAb was washed out with Tyrode's solution and activation initiated by adding anti-mouse IgG (25 ug/ml) (Jackson Immunoresearch Laboratories). Imaging was performed using a Bio-Rad Radiance 2100 confocal microscope equipped with a 60×1.4 NA oil immersion objective equipped with Lasersharp3000 software.
RBL-2H3 cells were grown in RPMI supplemented with 10% fetal bovine serum on cover slips. Semi-confluent cells were washed with Tyrode's solution and incubated with DMSO (vehicle) or 10 μM MLS000693334 for 1 h at 37° C. Inhibitor treated and un-treated cells were stimulated with 1 μg/ml DNP-BSA for 30 min as previously described {Wilson, 1991 #52}. Activation stopped by transferring of samples on ice. […]

Cdc42 in Swiss 3T3 cells = assay: EGF induced Cdc42 membrane localization; type: cell-based; conditions: 1 μM
Protocol: Subconfluent cells were starved overnight in DMEM without serum and incubated with 1 or 10 μM inhibitor for 1 h. As a positive control, cells were stimulated with 100 ng/ml bradykinin for 30 min, or 100 ng/ml EGF as previously described {Kozma, 1995 #24}. Cells were washed with phosphate buffered saline, fixed with 3% paraformaldehyde, permeabilized for 5 min with 0.1% Triton X-100 in Tyrode's buffer, blocked for 1 h with 1% BSA in Tyrode's buffer, and stained for 1 h with rhodamine-phalloidin or Cdc42 mAb (Cytoskeleton Inc., Denver, Colo.) for 1 h followed by Cy3-conjugated goat-anti-mouse antibody (Jackson Immunoresearch Laboratories) for 1 h, at RT.

[2] = tested on: Dbs (guanine nucleotide exchange factor) on Cdc42 wt; assay: Effect on Dbs activity, [3H]GDP/GTP exchange; type: biochemical; conditions: 10 μM
Protocol: GSH-beads were coupled with Cdc42 wt, washed and incubated with 10 mM EDTA-NP-HPS for 20 min at 30° C. Nucleotide depleted enzyme washed with NP-HPS, and incubated with 2μCi [^3H]GDP in the presence of 1 mM EDTA (in NP-HPS buffer) for 20 min at 30° C. To prevent the dissociation of tritiated guanine nucleotide from the Cdc42, MgCl2 was added to a final concentration 20 mM. [^3H]GDP-Cdc42-beads washed and re-suspended in GDP exchange buffer (NP-HPS with 1 mM EDTA, 5 mM MgCl2, and 1 mM DTT) and 100 μl aliquots loaded in tubes and incubated with vehicle or 10 μM MLS000693334 for 15 min. Effect of the guanine nucleotide exchange factor domain, Dbs on GDP/GTP exchange in the presence and absence of inhibitor was measured after addition of 200 nM His-DBS (DH/PH domain). The GDP/GTP exchange reaction was initiated by addition of 250 nM GTP and incubation samples for 2 min 30 C. The reaction was stopped by transferring samples on ice. Cdc42-beads collected and washed twice with ice cold GDP exchange buffer and measured radioactivity, by loading samples in scintillation vial.

Cdc42 ACT (Cdc42Q61L), sequence (P60953 whole entry Q61L): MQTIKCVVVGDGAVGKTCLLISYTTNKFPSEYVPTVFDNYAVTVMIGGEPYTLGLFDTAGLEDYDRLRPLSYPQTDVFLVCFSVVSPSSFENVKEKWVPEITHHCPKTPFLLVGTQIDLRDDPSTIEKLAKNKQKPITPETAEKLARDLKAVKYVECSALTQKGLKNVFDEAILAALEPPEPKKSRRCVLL
T1 sequence (P60953 whole entry): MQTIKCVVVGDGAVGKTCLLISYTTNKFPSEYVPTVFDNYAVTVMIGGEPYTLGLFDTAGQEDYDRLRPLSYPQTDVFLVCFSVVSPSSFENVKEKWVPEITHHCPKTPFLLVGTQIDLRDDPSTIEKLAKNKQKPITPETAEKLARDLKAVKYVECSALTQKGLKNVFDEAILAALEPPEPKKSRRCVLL

Structure (SMILES): COc1ccc(C2CC(c3ccccc3)=NN2c2ccc(S(N)(=O)=O)cc2)cc1 (stereo not shown) [MLS000693334, 4-[3-(4-methoxyphenyl)-5-phenyl-3,4-dihydropyrazol-2-yl]benzenesulfonamide]
- EC50 (Cdc42 ACT (Cdc42Q61L)): ~4 µM
- EC50 (Cdc42 WT): ~4 µM
- Effect on activity of other Rho family GTPases [1]: did not affect activity
- Filopodia formation and cell spreading after cross-linking of Thy-1 (RBL-2H3 cells): dramatically inhibits
- Morphology of resting RBL-2H3 cells (RBL-2H3 cells): no change in morphology
- EGF induced localization of Cdc42 on the membrane (Cdc42 in Swiss 3T3 cells): reduced membrane localization
- Dbs activity (GDP/GTP exchange) [2]: did not changes Dbs activity
